From ChEMBL document CHEMBL6096719, “Kidney Targeting Smart Antibiotic Discovery: Multimechanism Pleuromutilins for Pyelonephritis Therapy” (J Med Chem, 2025)

Assay: Aqueous solubility of the compound incubated for 12 hrs by UV-Vis spectrophotometry
Format: physicochemical
Conditions: buffer

Row | solubility at 12 h [µg/mL] | Structure (SMILES)
1 | 648 | Br.C=C[C@]1(C)C[C@@H](OC(=O)CSc2nc3cc[n+](Cc4ccc([N+](=O)[O-])cc4)cc3s2)[C@]2(C)[C@H](C)CC[C@]3(CCC(=O)[C@H]32)[C@@H](C)[C@@H]1O
2 | 419 | C=C[C@]1(C)C[C@@H](OC(=O)CSc2nc3cc[n+](Cc4ccc(Cl)cc4)cc3[nH]2)[C@]2(C)[C@H](C)CC[C@]3(CCC(=O)[C@H]32)[C@@H](C)[C@@H]1O.[Br-]
3 | 486 | C=C[C@]1(C)C[C@@H](OC(=O)CSc2nc3cc[n+](Cc4ccc(C(C)(C)C)cc4)cc3[nH]2)[C@]2(C)[C@H](C)CC[C@]3(CCC(=O)[C@H]32)[C@@H](C)[C@@H]1O.[Br-]
4 | 485 | C=C[C@]1(C)C[C@@H](OC(=O)CSc2nc3cc[n+](Cc4cc(F)c(F)cc4F)cc3s2)[C@]2(C)[C@H](C)CC[C@]3(CCC(=O)[C@H]32)[C@@H](C)[C@@H]1O.[Br-]
5 | 453 | C=C[C@]1(C)C[C@@H](OC(=O)CSc2nc3cc[n+](Cc4ccc(C(C)(C)C)cc4)cc3s2)[C@]2(C)[C@H](C)CC[C@]3(CCC(=O)[C@H]32)[C@@H](C)[C@@H]1O.[Br-]
6 | 344 | C=C[C@]1(C)C[C@@H](OC(=O)CSc2nc3cc[n+](Cc4ccc(Br)cc4)cc3s2)[C@]2(C)[C@H](C)CC[C@]3(CCC(=O)[C@H]32)[C@@H](C)[C@@H]1O.[Br-]
7 | 449 | C=C[C@]1(C)C[C@@H](OC(=O)CSc2nc3cc[n+](Cc4ccc(Cl)cc4)cc3s2)[C@]2(C)[C@H](C)CC[C@]3(CCC(=O)[C@H]32)[C@@H](C)[C@@H]1O.[Br-]
8 | 94 | C=C[C@]1(C)C[C@@H](OC(=O)CSc2nc3cc[n+](Cc4cc(OC)cc(OC)c4)cc3s2)[C@]2(C)[C@H](C)CC[C@]3(CCC(=O)[C@H]32)[C@@H](C)[C@@H]1O.[Br-]
9 | 168 | C=C[C@]1(C)C[C@@H](OC(=O)CSc2nc3cc[n+](Cc4cc(F)ccc4C#N)cc3s2)[C@]2(C)[C@H](C)CC[C@]3(CCC(=O)[C@H]32)[C@@H](C)[C@@H]1O.[Br-]
10 | 414 | C=C[C@]1(C)C[C@@H](OC(=O)CSc2nc3cc[n+](Cc4cc(C)cc(C)c4)cc3[nH]2)[C@]2(C)[C@H](C)CC[C@]3(CCC(=O)[C@H]32)[C@@H](C)[C@@H]1O.[Br-]
11 | 177 | C=C[C@]1(C)C[C@@H](OC(=O)CSc2nc3cc[n+](Cc4ccc(OC)cc4)cc3s2)[C@]2(C)[C@H](C)CC[C@]3(CCC(=O)[C@H]32)[C@@H](C)[C@@H]1O.[Br-]
12 | 391 | C=C[C@]1(C)C[C@@H](OC(=O)CSc2nc3cc[n+](Cc4ccc(-c5ccccc5)cc4)cc3s2)[C@]2(C)[C@H](C)CC[C@]3(CCC(=O)[C@H]32)[C@@H](C)[C@@H]1O.[Br-]
13 | 539 | C=C[C@]1(C)C[C@@H](OC(=O)CSc2nc3cc[n+](Cc4cc(F)c(F)cc4F)cc3[nH]2)[C@]2(C)[C@H](C)CC[C@]3(CCC(=O)[C@H]32)[C@@H](C)[C@@H]1O.[Br-]
14 | 159 | C=C[C@]1(C)C[C@@H](OC(=O)CSc2nc3cc[n+](Cc4ccc(F)cc4)cc3[nH]2)[C@]2(C)[C@H](C)CC[C@]3(CCC(=O)[C@H]32)[C@@H](C)[C@@H]1O.[Br-]
15 | 432 | C=C[C@]1(C)C[C@@H](OC(=O)CSc2nc3cc[n+](Cc4ccc(Br)cc4)cc3[nH]2)[C@]2(C)[C@H](C)CC[C@]3(CCC(=O)[C@H]32)[C@@H](C)[C@@H]1O.[Br-]
16 | 176 | C=C[C@]1(C)C[C@@H](OC(=O)CSc2nc3cc[n+](Cc4cc(OC)cc(OC)c4)cc3[nH]2)[C@]2(C)[C@H](C)CC[C@]3(CCC(=O)[C@H]32)[C@@H](C)[C@@H]1O.[Br-]
17 | 367 | C=C[C@]1(C)C[C@@H](OC(=O)CSc2nc3cc[n+](Cc4ccc(-c5ccccc5)cc4)cc3[nH]2)[C@]2(C)[C@H](C)CC[C@]3(CCC(=O)[C@H]32)[C@@H](C)[C@@H]1O.[Br-]
18 | 337 | C=C[C@]1(C)C[C@@H](OC(=O)CSc2nc3cc[n+](Cc4ccc(C(F)(F)F)cc4)cc3[nH]2)[C@]2(C)[C@H](C)CC[C@]3(CCC(=O)[C@H]32)[C@@H](C)[C@@H]1O.[Br-]
